Six compounds from ChEMBL document CHEMBL1129128, “Synthesis of divalent -D-mannopyranosylated clusters having enhanced binding affinities towards concanavalin A and pea lectins” (Bioorg Med Chem Lett, 1996) can be followed below.

The test system of test [1] is Saccharomyces cerevisiae. Briefly: Inhibition of binding of concanavalin A to yeast mannan by compound was measured using peroxidase-labeled lectin assay, expressed relative to 2-Hydroxymethyl-6-methoxy-tetrahydro-pyran-3,4,5-triol.
Test [2] has as its system Saccharomyces cerevisiae. Nature of the test: Inhibition of binding of pea lectins to yeast mannan by compound was measured using peroxidase-labeled lectin assay, activity expressed relative to 2-Hydroxymethyl-6-methoxy-tetrahydro-pyran-3,4,5-triol.
The nature of test [3]: Inhibition of binding of pea lectins to yeast mannan by compound was measured using peroxidase-labeled lectin assay. Details: species or system Saccharomyces cerevisiae.
Test [4] can be described thus: Inhibition of binding of concanavalin A to yeast mannan by compound was measured using peroxidase-labeled lectin assay,. Details: species or system Saccharomyces cerevisiae.

With `C=CCO[C@H]1O[C@@H](CO)[C@@H](O)[C@H](O)[C@H]1O`, the Relative potency stood at 3.5 with Saccharomyces cerevisiae [1] and 4.1 in the test on Saccharomyces cerevisiae [2]. In addition, the half-maximal inhibitory concentration (IC50) in test [3] is 940 µM; in test [4] it was 261 µM.

In the case of `O=C(CCCCC/N=C(\S)Nc1ccc(O[C@H]2O[C@@H](CO)[C@@H](O)[C@H](O)[C@H]2O)cc1)Nc1cc(NC(=O)CCCCC/N=C(\S)Nc2ccc(O[C@H]3O[C@@H](CO)[C@@H](O)[C@H](O)[C@H]3O)cc2)cc(C(=O)O)c1`, the Relative potency in the test on Saccharomyces cerevisiae [1] was determined as 25; in the test with Saccharomyces cerevisiae [2] it was 6.7. The values for the IC50 in test [3] and in test [4] were 575 µM and 36.8 µM, respectively.

On to `O=[N+]([O-])c1ccc(O[C@H]2O[C@H](CO)[C@@H](O)[C@H](O)[C@H]2O)cc1`, for which the Relative potency came out at 8.7 in the test on Saccharomyces cerevisiae [1] and 2.6 in the test on Saccharomyces cerevisiae [2]. Also, the IC50 in test [3] is over 1500 µM; in test [4], 106 µM.

`CO[C@H]1O[C@H](CO)[C@@H](O)[C@H](O)[C@H]1O`: the Relative potency in the test on Saccharomyces cerevisiae [1] and in the test on Saccharomyces cerevisiae [2] was 1 in each case. The IC50 in test [3] worked out at 3850 µM; in test [4], 924 µM.

Take `O=C(O)c1cc(N/C(S)=N/CCSCCCO[C@H]2O[C@@H](CO)[C@@H](O)[C@H](O)[C@H]2O)cc(N/C(S)=N/CCSCCCO[C@H]2O[C@@H](CO)[C@@H](O)[C@H](O)[C@H]2O)c1`: the Relative potency in the test with Saccharomyces cerevisiae [1] is 30.3; in the test on Saccharomyces cerevisiae [2], 20.8. Also, the IC50 in test [3] came to 185 µM; in test [4] it was 30.5 µM.

For the compound `COC(=O)c1cc(N/C(S)=N/CCSCCCO[C@H]2O[C@@H](CO)[C@@H](O)[C@H](O)[C@H]2O)cc(N/C(S)=N/CCSCCCO[C@H]2O[C@@H](CO)[C@@H](O)[C@H](O)[C@H]2O)c1`, the Relative potency stood at 138 with Saccharomyces cerevisiae [1] and 29.8 in the test on Saccharomyces cerevisiae [2]. Also, the IC50 in test [3] was 129 µM; in test [4], 6.7 µM.
